The results in this text go back to patent US11759496B2, “Compounds and pharmaceutical use thereof in the treatment of cancer” (priority 2016, dated 2023).

Non-standard residues stand in square brackets, D forms with d. Residues, ends and D or L forms follow the SMILES beside them. No end group written: not given here. NMeR = CN[C@@H](CCCNC(=N)N)C(=O)O; Nle = CCCC[C@H](N)C(=O)O

One assay relates to MEC-1 cells. Put plainly: MEC-1 cell death (PCD) after 2 h peptide treatment. Format: cell-based. The following applies: for MEC-1 Cell Death (%) 2 h, [peptides] = 200 μM: Table 3, 200 μM peptide; for Cell Death (MEC-1, 2 h): Table 4. As for the experimental part: Then the peptides structures were tested via NMR and X-ray. The peptides were also tested for their activity on MEC-1 and their KDs and Retention times on LCMS were determined.

For assay [1], the target named is T1, CD47 (membrane preparation from MEC-1 cells) (Homo sapiens, UniProt Q08722).
T1 construct: MEC-1 cell membrane preparation were biotinylated with the EZ-Link NHS-PEG4-Biotin kit; endogenous in cells; host or cells: MEC-1 cells (membrane preparation)
T1 sequence (Q08722 19-323): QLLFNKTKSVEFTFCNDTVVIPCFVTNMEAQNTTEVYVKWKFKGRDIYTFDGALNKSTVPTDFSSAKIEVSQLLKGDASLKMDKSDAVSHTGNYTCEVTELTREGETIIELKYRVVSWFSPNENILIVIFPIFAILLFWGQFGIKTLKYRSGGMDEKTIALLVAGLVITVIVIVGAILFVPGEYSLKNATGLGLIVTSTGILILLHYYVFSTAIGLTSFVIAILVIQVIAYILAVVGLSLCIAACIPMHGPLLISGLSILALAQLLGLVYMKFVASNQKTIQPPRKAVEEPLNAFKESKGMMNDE
The assay is described as follows: Binding affinity by biolayer interferometry (Octet RED96) on biotinylated MEC-1 cell membrane preparation. To be noted: NPD = Non Pertinent Data; for Kd (μM): Table 3, average of two or more measurements; for Kd(μM)PR: Table 4, N-methyl peptides. On the procedure: The binding affinities of peptides for a membrane preparation from MEC-1 cells were measured by biolayer interferometry on an Octet RED96 System (Pall FortéBio Corp., Menlo Park, Calif.).
The binding affinities of peptides for a membrane preparation from MEC-1 cells were measured by biolayer interferometry on an Octet RED96 System (Pall FortéBio Corp., Menlo Park, Calif.). This system monitors interference of light reflected from two sources (an internal reflection surface and the liquid/solid interface of a fiber optic sensor) to measure the rate of binding of molecules to the biosensor surface.
MEC-1 cell membrane preparation were biotinylated with the EZ-Link NHS-PEG4-Biotin kit from Thermo-Scientific. Biotinylated membranes were then loaded onto SuperStreptavidin (SSA) biosensors (Pall FortéBio Corp.) at empirically determined concentrations.
In order to highlight the pharmacological properties of these peptides, a systematic SAR study by the development of a binding assay allowing to the assessment of the affinity of the 4N1K analogues to CD47 was initiated. […] An Ala-scan to identify the pharmacophores of 4N1K was implemented.
The binding affinities of peptides for a MEC-1 cells membrane preparation were measured by biolayer interferometry on an Octet RED96 System (Pall FortéBio Corp., Menlo Park, Calif.). This system monitors interference of light reflected from two sources (an internal reflection surface and the liquid/solid interface of a fiber optic sensor) to measure the rate of binding of molecules to the biosensor surface. MEC-1 cells membrane preparation is biotinylated with the EZ-Link NHS-PEG4-Biotin kit from Thermo-Scientific and excess biotin is removed using desalting column from Thermo-Scientific. Biotinylated membranes are then loaded onto SuperStreptavidin (SSA) biosensors (Pall FortéBio Corp.) at empirically determined concentrations. […] Typically, the biosensors were pre-equilibrated in PBS containing either biotinylated membranes or biocytine 100 μg/mL. Biosensors are then equilibrated in assay buffer for 10 min, brought to baseline in assay buffer for 60 sec. and transferred to wells containing peptide in dose-response (association for 120 sec. and dissociation for 300 sec.). The double reference with either membrane-loaded biosensors without any peptide dose-response or biocytine-loaded biosensors with each peptide dose-response were run in parallel for background signal double subtractions. Binding kinetics were calculated using the FortéBio Data Analysis v8.2 software.
A general note: In BLI a coated tip is dipped into the sample, and binding shifts an interference pattern.

Take `CSCC[C@H](NC(=O)[C@H](C)NC(=O)[C@@H](NC(=O)[C@H](Cc1ccc(O)cc1)NC(=O)[C@H](Cc1ccccc1)NC(=O)[C@H](CCCNC(=N)N)NC(=O)[C@H](N)CCCCN)C(C)C)C(=O)N[C@@H](Cc1c[nH]c2ccccc12)C(=O)N[C@@H](CCCCN)C(=O)N[C@H](CCCCN)C(=O)O` [V6/A, kRFYV(A)MWKk] (H-[dK]RFYVAMWK[dK]-OH; N-terminus and C-terminus assumed): the “MEC-1 Cell Death (%) 2 h, [peptides] = 200 μM” value in the assay with MEC-1 cells was determined as 30%. In assay [1], the “Kd (μM)” value is “NPD”.

As for `CSCC[C@H](NC(=O)[C@H](C(C)C)N(C)C(=O)[C@@H](NC(=O)[C@H](Cc1ccc(O)cc1)NC(=O)[C@H](Cc1ccccc1)NC(=O)[C@H](CCCNC(=N)N)NC(=O)[C@H](N)CCCCN)C(C)C)C(=O)N[C@@H](Cc1c[nH]c2ccccc12)C(=O)N[C@@H](CCCCN)C(=O)N[C@H](CCCCN)C(=O)O` [PKT7, H-(D)K R F Y V ψ(CONMe)V M W K (D)K-OH], the “Cell Death (MEC-1, 2 h)” value in the assay on MEC-1 cells is recorded as 0%. Further, the “Kd(μM)PR” value in assay [1] is recorded as “NPD”. As to “H-(D)K R F Y V V ψ(CONMe)M W K (D)K-OH (KRFYVVMWKK; D-residues, N-methyl amide bond; (1)..(1) Amino acid at position 1 is in the D-configuration; (7)..(7) Amino acid at position 7 is backbone-N- …ON of the Methionine; (10)..(10) Amino acid at position 10 is in the D-configuration) [PKT13]”, the “Cell Death (MEC-1, 2 h)” value in the assay on MEC-1 cells is 0%. In assay [1], the “Kd(μM)PR” value is reported as “NPD”. Turning to `CSCC[C@H](NC(=O)[C@@H](NC(=O)[C@@H](NC(=O)[C@H](Cc1ccc(O)cc1)NC(=O)[C@H](Cc1ccccc1)NC(=O)[C@H](CCCNC(=N)N)NC(=O)[C@H](N)CCCCN)C(C)C)C(C)C)C(=O)N[C@@H](C)C(=O)N[C@@H](CCCCN)C(=O)N[C@H](CCCCN)C(=O)O` [W8/A, kRFYVVM(A)Kk] (H-[dK]RFYVVMAK[dK]-OH; N-terminus and C-terminus assumed), the “MEC-1 Cell Death (%) 2 h, [peptides] = 200 μM” value with MEC-1 cells was 35%. For the same compound, the “Kd (μM)” value in assay [1] is “NPD”. Regarding `CSCC[C@H](NC(=O)[C@@H](NC(=O)[C@@H](NC(=O)[C@H](Cc1ccc(O)cc1)N(C)C(=O)[C@H](Cc1ccccc1)NC(=O)[C@H](CCCNC(=N)N)NC(=O)[C@H](N)CCCCN)C(C)C)C(C)C)C(=O)N[C@@H](Cc1c[nH]c2ccccc12)C(=O)N[C@@H](CCCCN)C(=O)N[C@H](CCCCN)C(=O)O` [PKT9, H-(D)K R F ψ(CONMe)Y V V M W K (D)K-OH], the “Cell Death (MEC-1, 2 h)” value in the assay with MEC-1 cells came to 0%. For the same compound, the “Kd(μM)PR” value in assay [1] was “NPD”. Turning to kRF(A)VVMWKk ([dK]RFAVVMWK[dK]) [Y4/A], in the assay on MEC-1 cells, the “MEC-1 Cell Death (%) 2 h, [peptides] = 200 μM” value is listed as 0%. Besides, in assay [1], the “Kd (μM)” value is “NPD”. In the case of `CSCC[C@H](NC(=O)[C@@H](NC(=O)[C@@H](NC(=O)[C@H](Cc1ccc(O)cc1)NC(=O)[C@H](Cc1ccccc1)NC(=O)[C@H](C)NC(=O)[C@H](N)CCCCN)C(C)C)C(C)C)C(=O)N[C@@H](Cc1c[nH]c2ccccc12)C(=O)N[C@@H](CCCCN)C(=O)N[C@H](CCCCN)C(=O)O` [R2/A, k(A)FYVVMWKk] (H-[dK]AFYVVMWK[dK]-OH), the “MEC-1 Cell Death (%) 2 h, [peptides] = 200 μM” value in the assay on MEC-1 cells is listed as 44%. As for `CSCC[C@H](NC(=O)[C@@H](NC(=O)[C@@H](NC(=O)[C@H](Cc1ccc(O)cc1)NC(=O)[C@H](Cc1ccccc1)NC(=O)[C@H](CCCNC(=N)N)N(C)C(=O)[C@H](N)CCCCN)C(C)C)C(C)C)C(=O)N[C@@H](Cc1c[nH]c2ccccc12)C(=O)N[C@@H](CCCCN)C(=O)N[C@H](CCCCN)C(=O)O` [PKT11, H-(D)K ψ(CONMe)R F Y V V M W K (D)K-OH], the “Cell Death (MEC-1, 2 h)” value with MEC-1 cells is 60%. On to “H-(D)K R F Y V V M W ψ(CONMe)K (D)K-OH (KRFYVVMWKK; D-residues, N-methyl amide bond; (1)..(1) Amino acid at position 1 is in the D-configuration; (9)..(9) Amino acid at position 9 is backbone-N- …ON of the Lysine; (10)..(10) Amino acid at position 10 is in the D-configuration) [PKT14]”, for which, in the assay on MEC-1 cells, the “Cell Death (MEC-1, 2 h)” value is recorded as 35%. For the same compound, in assay [1], the “Kd(μM)PR” value is listed as “NPD”.

As to `CSCC[C@H](NC(=O)[C@@H](NC(=O)[C@@H](NC(=O)[C@H](Cc1ccc(O)cc1)NC(=O)[C@H](Cc1ccccc1)NC(=O)[C@H](CCCNC(=N)N)NC(=O)[C@H](N)CCCCN)C(C)C)C(C)C)C(=O)N[C@@H](Cc1c[nH]c2ccccc12)C(=O)N[C@@H](C)C(=O)N[C@H](CCCCN)C(=O)O` [K9/A, kRFYVVMW(A)k] (H-[dK]RFYVVMWA[dK]-OH), the “MEC-1 Cell Death (%) 2 h, [peptides] = 200 μM” value in the assay on MEC-1 cells is recorded as 46%.

As for `CSCC[C@H](NC(=O)[C@@H](NC(=O)[C@@H](NC(=O)[C@H](Cc1ccc(O)cc1)NC(=O)[C@H](Cc1ccccc1)NC(=O)[C@H](CCCNC(=N)N)NC(=O)[C@H](N)CCCCN)C(C)C)C(C)C)C(=O)N(C)[C@@H](Cc1c[nH]c2ccccc12)C(=O)N[C@@H](CCCCN)C(=O)N[C@H](CCCCN)C(=O)O` [PKT12, H-(D)K R F Y V V M ψ(CONMe)W K (D)K-OH], the “Cell Death (MEC-1, 2 h)” value in the assay on MEC-1 cells was determined as 0%. Further, the “Kd(μM)PR” value in assay [1] is on record as “NPD”. As to `CSCC[C@H](NC(=O)[C@@H](NC(=O)[C@@H](NC(=O)[C@H](Cc1ccc(O)cc1)NC(=O)[C@H](Cc1ccccc1)NC(=O)[C@H](CCCNC(=N)N)N(C)C(=O)[C@H](N)CCCCN)C(C)C)C(C)C)C(=O)N[C@@H](Cc1c[nH]c2ccccc12)C(=O)N(C)[C@@H](CCCCN)C(=O)N[C@H](CCCCN)C(=O)O` [PKT15, H-(D)K ψ(CONMe)R F Y V V M W ψ(CONMe)K (D)K-OH], the “Cell Death (MEC-1, 2 h)” value in the assay on MEC-1 cells was 10%. As to `CC(C)[C@H](NC(=O)[C@H](Cc1ccc(O)cc1)NC(=O)[C@H](Cc1ccccc1)NC(=O)[C@H](CCCNC(=N)N)NC(=O)[C@H](N)CCCCN)C(=O)N[C@H](C(=O)N[C@@H](C)C(=O)N[C@@H](Cc1c[nH]c2ccccc12)C(=O)N[C@@H](CCCCN)C(=O)N[C@H](CCCCN)C(=O)O)C(C)C` [M7/A, kRFYVV(A)WKk] (H-[dK]RFYVVAWK[dK]-OH; N-terminus and C-terminus assumed), in the assay on MEC-1 cells, the “MEC-1 Cell Death (%) 2 h, [peptides] = 200 μM” value worked out at 6%. With `CSCC[C@H](NC(=O)[C@@H](NC(=O)[C@H](C(C)C)N(C)C(=O)[C@H](Cc1ccc(O)cc1)NC(=O)[C@H](Cc1ccccc1)NC(=O)[C@H](CCCNC(=N)N)NC(=O)[C@H](N)CCCCN)C(C)C)C(=O)N[C@@H](Cc1c[nH]c2ccccc12)C(=O)N[C@@H](CCCCN)C(=O)N[C@H](CCCCN)C(=O)O` [PKT8, H-(D)K R F Y ψ(CONMe)V V M W K (D)K-OH], in the assay on MEC-1 cells, the “Cell Death (MEC-1, 2 h)” value was 0%. Moreover, in assay [1], the “Kd(μM)PR” value is “NPD”. Take `CCCC[C@H](NC(=O)[C@@H](NC(=O)[C@@H](NC(=O)[C@H](Cc1ccc(O)cc1)NC(=O)[C@H](Cc1ccccc1)NC(=O)[C@H](CCCNC(=N)N)NC(=O)[C@H](N)CCCCN)C(C)C)C(C)C)C(=O)N[C@@H](Cc1c[nH]c2ccccc12)C(=O)N[C@@H](CCCCN)C(=O)N[C@H](CCCCN)C(=O)O` [M/Nle, kRFYVV(Nle)WKk] (H-[dK]RFYVV[Nle]WK[dK]-OH): the “MEC-1 Cell Death (%) 2 h, [peptides] = 200 μM” value in the assay on MEC-1 cells was determined as 47%.

Take `CSCC[C@H](NC(=O)[C@@H](NC(=O)[C@@H](NC(=O)[C@H](Cc1ccc(O)cc1)NC(=O)[C@H](Cc1ccccc1)NC(=O)[C@H](CCCNC(=N)N)NC(=O)[C@H](CCCCN)NC(C)=O)C(C)C)C(C)C)C(=O)N[C@@H](Cc1c[nH]c2ccccc12)C(=O)N[C@@H](CCCCN)C(=O)N[C@@H](CCCCN)C(N)=O` [compound 2] (Ac-KRFYVVMWKK-NH2): the “MEC-1 Cell Death (%) 2 h” value in the assay on MEC-1 cells (Table 2, NPD = Non Pertinent Data) was 30%. As to “H-(D)K ψ(CONMe)R F Y VV I W K (D)K-OH [PKT18]”, in the assay with MEC-1 cells, the “Cell Death (MEC-1, 2 h)” value turned out to be 45%. Turning to `CC(C)C[C@H](NC(=O)[C@@H](NC(=O)[C@@H](NC(=O)[C@H](Cc1ccc(O)cc1)NC(=O)[C@H](Cc1ccccc1)NC(=O)[C@H](CCCNC(=N)N)N(C)C(=O)[C@H](N)CCCCN)C(C)C)C(C)C)C(=O)N[C@@H](Cc1c[nH]c2ccccc12)C(=O)N[C@@H](CCCCN)C(=O)N[C@H](CCCCN)C(=O)O` [PKT17, H-(D)K ψ(CONMe)R F Y V V L W K (D)K-OH] (H-[dK][NMeR]FYVVLWK[dK]-OH), in the assay on MEC-1 cells, the “Cell Death (MEC-1, 2 h)” value amounted to 30%.
